Results as given in publication PMC5451472, “Novel Locally Active Estrogens Accelerate Cutaneous Wound Healing-Part 2” (Scientific Reports, 2017).

What was measured:
ERs = biological target: T1, ERs (Homo sapiens, UniProt P03372); test: ER transactivation assay in ERE-Luc B17 cells (luciferase reporter); type: cell-based; conditions: for EC50: ERE-Luc B17 cells (MCF-7 clone), 24 h, luciferase activity, sigmoidal dose-response, read-out: EC50 (transactivation potency); for fold induction at 10 µM / activity on ERs: ERE-Luc B17 cells; for fold induction at 10 µM: 10^-5 M of compound respect to vehicle
T1 construct: endogenous in cells; host or cells: MCF-7, clone ERE-Luc B17 (only the luciferase reporter is transfected)
T1 sequence (P03372 1-595): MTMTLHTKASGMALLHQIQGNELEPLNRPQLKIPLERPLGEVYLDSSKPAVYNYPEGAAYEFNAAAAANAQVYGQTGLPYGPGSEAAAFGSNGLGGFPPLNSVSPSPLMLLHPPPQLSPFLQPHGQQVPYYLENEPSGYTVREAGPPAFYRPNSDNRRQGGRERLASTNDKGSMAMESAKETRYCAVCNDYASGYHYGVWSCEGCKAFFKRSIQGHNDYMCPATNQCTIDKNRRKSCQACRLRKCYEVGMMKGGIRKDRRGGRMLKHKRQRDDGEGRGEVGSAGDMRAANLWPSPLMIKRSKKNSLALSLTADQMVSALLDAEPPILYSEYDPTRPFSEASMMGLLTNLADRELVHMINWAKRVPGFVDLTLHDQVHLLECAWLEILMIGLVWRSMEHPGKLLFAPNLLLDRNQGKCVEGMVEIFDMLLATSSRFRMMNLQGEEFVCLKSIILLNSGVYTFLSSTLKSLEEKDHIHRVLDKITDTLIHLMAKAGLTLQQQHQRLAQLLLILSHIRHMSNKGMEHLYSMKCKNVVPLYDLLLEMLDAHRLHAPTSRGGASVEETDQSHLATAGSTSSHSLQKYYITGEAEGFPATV
Procedure: The ability of the novel compounds to transcriptionally activate ERs was tested in ERE-Luc B 17 cells, a clone of the breast cancer cell line MCF-7 stably transfected with a reporter constituted by the luciferase gene driven by an estrogen-regulated synthetic promoter previously generated and tested in our laboratories.
Cells were split twice a week by seeding 2 × 10^6 cells in 100 mm diameter Petri (Corning) dishes.
After 24 h cells were rinsed once with PBS before preparing the protein extract for the determination of luciferase content. Each experiment was carried out in duplicate.
Luciferase enzymatic activity was measured in cells or selected tissue homogenates by a luminometer (Glomax™96 microplate luminometer; Promega) using Promega standard luciferin (Beetle Luciferin Potassium Salt) and expressed as Relative Light Units over 10 sec/μg protein (RLU/μg protein). Proteins concentrations were measured by Bradford.
Analysis of transactivation data and calculation of EC50 values were performed by means of sigmoidal dose-response (variable slope) using PRISM5 software (GraphPad Software Inc.).

[1] = test system: ER transcriptional activity; test: In vivo BLI time course in wounded ovariectomized ERE-Luc mice, compounds s.c. around the wound; design: species or system mouse
Procedure: To study the estrogenic and healing properties of the two compounds, we generated a wound in the ERE-Luc mouse model and tested the activity of the two compounds administered s.c. in the area surrounding the wound as described in the methodology section.
Each group was composed of 4 ERE-Luc females’ mice ovariectomized 2 weeks’ prior the experiment to avoid any interference due to endogenous estrogens. Photon emission was measured in the living animals three times: at 0, 3 and 6 h after s.c. injection.
(§1) ERE-Luc and MITO-Luc mice were ovariectomized at two months of age; the experiment was done 2 weeks after surgery to allow the animals to recover and to decrease the levels of circulating estrogens. The animals were fed ad libitum with a special estrogen free diet (AIN 93 M, Mucedola) (Ciana et al. Endocrinology 2005) and housed in individually ventilated plastic cages within a temperature range of 22–25 °C, relative humidity of 50% ± 10% and under an automatic cycle of 12 h light/dark (lights on at 07:00 am). All animal experimentation was carried out in accordance with the ARRIVE and European Guidelines for Animal Care. All animal experiments were approved by the Italian Ministry of Research and University and controlled by a Departmental panel of experts. For the correct dosage of the compounds, the body weight of the animals (on empty stomach, fasted for at least 12–14 hours) was determined immediately before the treatment.
(§2) Ovariectomy was carried out as previously described. Wound healing was done after shaving by VEET depilatory cream a day before the treatment. The 1 cm full-thickness incisional wound was made through the skin and panniculus carnosus muscle of ovariectomized MITO-luc using a surgical scalpel (blade n°10, carbon steel, Swann-Morton Ltd). Round full-thickness wounds were done by cutting out a section of full-thickness skin (around 9 mm in diameter) using fine scissors on the dorsal skin of the isoflurane-anesthetized animal. For in vivo treatment the compounds were administered onto the subcutaneous area surrounding the wound by multiple subcutaneous injection, immediately after the generation of the wound.
For the semi-quantitative analysis of in vivo photon emission, animals were injected i.p. with 80 mg/kg of luciferin (Beetle Luciferin Potassium Salt; Promega, Madison, WI, USA) 15 min prior the imaging session. For the imaging, mice were anaesthetized using isofluorane (Isofluorane-Vet; Merial, Lyon, France) and kept under anesthesia during the 5 minutes of the session carried out with a CCD camera: both ventral and dorsal acquisition (Xenogen IVIS Lumina System; Caliper, PerkinElmer company). Photon emission in selected body areas was measured using the Living Image Software (Caliper, PerkinElmer company). The analysis was done in ventral view: whole body, thymus, hepatic area, abdomen, limbs, vagina and in dorsal view in wound area and expressed as photon/second/cm2/steradiant (p/s/cm2/sr).

[2] = design: method as in PMID 19718805; conditions: cited from earlier work
ERE-Luc mice = test: Uterus weight of ERE-Luc mice; type: in vivo, mouse; conditions: 20 µg/kg s.c., 6 h after treatment
Source text: The final study aiming at investigating the systemic effect of the NCE was done by measuring the uterus weight of all treated animal as the golden standard for the quantitative measure of estrogenic compounds.

[3] = test system: MITO-Luc mice (reporter of mitosis); test: Proliferation in the wound area, in vivo BLI of MITO-Luc mice; design: species or system mouse
Source text: Wound healing is a dynamic process consisting of four continuous, overlapping, and precisely programmed phases: hemostasis, inflammation, proliferation and tissue growth (proliferation) and remodeling (maturation). The healing effect of estrogens may be exerted at several levels, certainly the ability of the hormone to accelerate macrophage polarization towards the M2-reparative polarization stage plays a relevant role, however estrogens may also facilitate local cell proliferation and the formation of the granulation tissue, epithelialization, and wound contraction.
The experiments were done with the 1e compound as completely deprived of any activity on the uterus (Fig. 6). […] Photon emission was measured in the wound area at the following time: 0, 24, 48 and 72 hours post-treatment.
as §1
as §2, with “For in vivo treatment the compounds were administered onto the subcutaneous area surrounding the wound by multiple subcutaneous injection, immediately after the generation of the wound.” left out
For the semi-quantitative analysis of in vivo photon emission, animals were injected i.p. with 80 mg/kg of luciferin (Beetle Luciferin Potassium Salt; Promega, Madison, WI, USA) 15 min prior the imaging session. […] Photon emission in selected body areas was measured using the Living Image Software (Caliper, PerkinElmer company). The analysis was done in ventral view: whole body, thymus, hepatic area, abdomen, limbs, vagina and in dorsal view in wound area and expressed as photon/second/cm2/steradiant (p/s/cm2/sr).

MITO-Luc mice [4] = test: Wound area measurement in MITO-Luc mice; type: in vivo, mouse; conditions: 20 µg/kg s.c., 72 hours after treatment (vehicle 50%)
Procedure: To investigate to which extent the increased proliferation observed after the pharmacological treatments was functional to the healing process, we measured the size of the wound (Fig. 9a).
as §2

MITO-Luc mice [5] = test: Macrophage count (Iba1 immunohistochemistry) around the wound site; type: in vivo, mouse; conditions: 20 µg/kg s.c., 72 hours after treatment
Procedure: To better understand whether the healing effect of 1e could be attributed to its anti-inflammatory action, at the end of in vivo imaging (72 hours after treatments) the tissue surrounding the wound was dissected and subjected immunohistochemical analysis using the pan macrophage marker Iba1. […] This observation confirmed that the estrogenic compounds were able to regulate the immune response at local level.
In particular, the criteria for the assignation of granulations value are: 1 = wound bed partially covered with granulation tissue; 2 = thin granulation over the whole wound bed; 3 = thick granulation over the whole wound bed. Evaluation of macrophages was done through a specific antibody and digital image analysis: 4 µm sections from each wound healing sample were immunostained with primary rabbit […] antibody against Iba1 antigen (Wako; #019-19741) to assess the number of macrophages.
The number of positive cells were counted using the ImageJ analysis program (http://rsb.info.nih.gov/ij/) in 400x microscopic fields selected at the periphery of the wound area.

MITO-Luc mice [6] = test: Granulation tissue histoscore of round full-thickness wound at day 10; type: in vivo, mouse; conditions: 20 µg/kg s.c., day 10, round wound, scale 1-3 (vehicle 0.3)
Procedure: The measure of photon emission from the wound area was done for several days after the wounding. 3 days after treatment the bioluminescent signal is highest (Fig. 10 Panel a).
as §2
At the time of euthanasia, the wounds with surrounding healthy tissue were excised, distended on a strip of hard paper and fixed in 10% buffered formalin (pH = 6). […] For histopathological examination 4 µm sections were routinely stained with Hematoxylin-Eosin (HE) and evaluated under a light microscope. The degree of re-epithelialization, the type and amount of granulation tissue and inflammation, which are the main features of wound healing, were scored separately. […]

`COC(=O)CCC#C[C@]1(O)CC[C@H]2[C@@H]3CCc4cc(O)ccc4[C@H]3CC[C@@]21C` [1a, 3,17β-Hydroxy-17α-(4′carbomethoxy-1′-butyn-1′-yl)estra-1,3,5-(10)-triene] showed an EC50 (ERs) of 0.92 µM and a fold induction at 10 µM (ERs) of 4.3.
In the case of `CCOC(=O)CCC#C[C@]1(O)CC[C@H]2[C@@H]3CCc4cc(O)ccc4[C@H]3CC[C@@]21C` [1b, 3,17β-Hydroxy-17α-(4′carbethoxy-1′-butyn-1′-yl)estra-1,3,5-(10)-triene], the “activity on ERs” value (ERs) is reported as “did not show any activity”.
Work on `CCCOC(=O)CCC#C[C@]1(O)CC[C@H]2[C@@H]3CCc4cc(O)ccc4[C@H]3CC[C@@]21C` [1c, 3,17β-Hydroxy-17α-(4′carbopropoxy-1′-butyn-1′-yl)estra-1,3,5-(10)-triene] yielded an EC50 (ERs) of 2.3 µM and a fold induction at 10 µM (ERs) of 2.6.
`CC(C)OC(=O)CCC#C[C@]1(O)CC[C@H]2[C@@H]3CCc4cc(O)ccc4[C@H]3CC[C@@]21C` [1d, 3,17β-Hydroxy-17α-(4′carbo-iso-propoxy-1′-butyn-1′-yl)estra-1,3,5-(10)-triene] gave a fold induction at 10 µM (ERs) of 5.
In the case of `CCCCCOC(=O)CCC#C[C@]1(O)CC[C@H]2[C@@H]3CCc4cc(O)ccc4[C@H]3CC[C@@]21C` [1f], the “photon emission in body areas (whole body, thymus, hepatic area, abdomen, limbs, vagina)” value ([1]; 200 µg/kg s.c. around wound, 3 or 6 h, ovx mice) is reported as “did not observe increased photon emission in any of the body areas” and the “increase of photon emission in the wound area with respect to time 0” value ([1]; 200 µg/kg s.c., 6 hours, trend) is reported as 20%.
`COC(=O)CCCC#C[C@]1(O)CC[C@H]2[C@@H]3CCc4cc(O)ccc4[C@H]3CC[C@@]21C` [1g, 3,17β-Hydroxy-17α-(5′carbomethoxy-1′-butyn-1′-yl)estra-1,3,5-(10)-triene] showed an EC50 (ERs) of 0.13 µM and a fold induction at 10 µM (ERs) of 2.5.
In the case of `CCOC(=O)CCCC#C[C@]1(O)CC[C@H]2[C@@H]3CCc4cc(O)ccc4[C@H]3CC[C@@]21C` [1h], the “activity on ERs” value (ERs) is reported as “did not show any activity”.
In the case of `CCCCC(=O)OCCC#C[C@]1(O)CC[C@H]2[C@@H]3CCc4cc(O)ccc4[C@H]3CC[C@@]21C` [2e], the “in vivo healing and systemic activity” value [2] is listed as “substantially accelerated healing without systemic activity”.
With `C[C@]12CC[C@@H]3c4ccc(O)cc4CC[C@H]3[C@@H]1CC[C@@]2(O)C#CCCCO` [6a] the “activity on ERs” value (ERs) was “did not show any activity”.
In the case of `C[C@]12CC[C@@H]3c4ccc(O)cc4CC[C@H]3[C@@H]1CC[C@@H]2O` [17β-estradiol, reference compound], the “luciferase activity in whole body and body areas” value ([1]; 20 µg/kg s.c. around wound, ovx mice) is reported as “induced a significant increase”, the “increase of photon emission in the wound area with respect to vehicle-treated mice” value ([1]; 20 µg/kg s.c., 6 hours) is reported as 40% and the “uterus weight higher than average weight of controls” value (ERE-Luc mice) is reported as 35%. For the same molecule, the average uterus weight (ERE-Luc mice; n = 4) was 22.8 mg, the “increase of photon emission from wound” value ([3]; 20 µg/kg s.c. around wound, 72 h versus time 0, ovx MITO-Luc) was 78% and the “photon emission from the wound area” value ([3]; 20 µg/kg s.c., 48 hours after administration) was “significantly increased”. The wound area reduction (MITO-Luc mice [4]) was 60%, the “number of macrophages (Iba1 positive) in the wound area lower than in controls” value (MITO-Luc mice [5]) was 44% and the “Score of granulation tissue (fibrosis), histoscore mean” value (MITO-Luc mice [6]) was 2.
